Data reported in patent publication US20200352889A1, “CYSTATHIONINE COMPOSITIONS AND METHODS OF TREATMENT FOR HEALTH CONDITIONS” (THE REGENTS OF THE UNIVERSITY OF COLORADO, A BODY CORPORATE, priority 2011, published 2020).
“Also recorded” adds a separate entry of the source.

Legend:
[1] = system: Grp78, Grp94, GADD153; experiment: Northern and Western blotting of UPR induction in 293AD cells; type: cell-based, human
Protocol: To further assess the effect of cystathionine upon induction of the UPR and GADD153 by ER stress Northern and Western blotting experiments were performed.
Immunoblot analysis of total cell lysates was performed as described previously (4,14). Briefly, following incubation with the appropriate primary and horseradish peroxidase-conjugated secondary antibodies (Affinity Biologicals, Ancaster, ON, Canada) membranes were developed using the Renaissance® Western Blot Chemiluminescence Reagent Kit, (Perkin Elmer, Woodbridge, ON, Canada). Proteins were transferred on a nitrocellulose membrane, and probed with anti-KDEL monoclonal antibody, which recognizes Hsp70, GRP78 and GRP94 that was purchased from Stressgen Biotechnologies (SPA-827) or anti GADD153 (Santa Cruz Biotech #SC-7351). Anti-β-Actin monoclonal antibody (Sigma) was used as a loading control.
Total RNA was isolated from 293AD cells using the RNeasy® total RNA kit (Qiagen, Santa Clarita, Calif.) and resuspended in diethylpyrocarbonate (DEPC)-treated water. Quantification and purity of the RNA was assessed by A260/A280 absorption, and RNA samples with ratios greater than 1.6 were stored at […] for further analysis. Total RNA (10 μg/lane) was fractionated on 2.2 mol/L formaldehyde/1.2% agarose gels and transferred overnight onto Zeta-Probe® GT nylon membranes (Bio-Rad, Toronto, Canada) in 10×SSC. The RNA was cross-linked to the membrane using a UV crosslinker (PDI Bioscience, Toronto, Canada) before hybridization. Specific probes were generated by labeling cDNA fragments with [−32P]dCTP (NEN) using a random primed DNA labeling kit (Boehringer Mannheim, Laval, Canada). The cDNA probe for GADD153 (no. AA627477) was obtained from Genome Systems (St Louis, Mo.). The cDNA probe used for GRP78 is a full length cDNA clone that has been described previously (4). After overnight hybridization at 43° C., the membranes were washed as described by the manufacturer, exposed to x-ray film, and subjected to autoradiography.

[2] = system: hepatic CGL; details: I.P. injection; cited from earlier work
[3] = system: KDEL containing chaperones and GADD153; experiment: Immunohistochemical analysis of unfolded protein response in liver and kidney; type: in vivo, mouse
Protocol: While it is not necessary to understand the mechanism of action, it is believed cystathionine may protect against ER stress induced cell injury by increasing the induction of molecular chaperones like Grp78 or by inhibiting the induction of GADD153. In order to investigate the mechanism by which cystathionine is protecting against ER stress induced tissue injury, an immunohistochemical analysis of liver and kidney tissues samples from the experimental groups described above was performed. […] Strong induction of KDEL containing proteins and GADD153 by tunicamycin treatment in both liver and kidneys of the tunicamycin groups was observed (FIG. 8, Panel B).
Prolonged perturbation of the ER is a powerful inducer of the C/EBP family member GADD153 (also known as CHOP) that plays a key role in the induction of programmed cell death by ER stress (10). Previous work has shown that GRP78 over-expression in Chinese hamster ovary cells attenuates both the ER stress-signal and the cell death that is observed in response to calcium ionophores (22) and blocking the expression of GRP78 by means of antisense constructs increase the lethality of agents that promote ER stress (23). Within this context, it is conceivable that cystathionine could protect against ER stress induced cell injury by increasing the induction of molecular chaperones like Grp78 or by inhibiting the induction of GADD153. […]

[4] = system: 293AD cells; experiment: Tunicamycin-induced cell death, LDH release and phase-contrast, 293AD cells; type: cell-based, human
Protocol: (§1) Cells were seeded in triplicate at ˜75% confluence and pre-treated with either PPG) (5 mM), Cystathionine (1 mM) or with just complete media (DMEM, 10% FBS) as a control. After 24 hr pre-treatment, cells looked normal, with minimal floating cells. Fresh media with 1% FBS was then added to each well, the cells were further treated with Tm (either 5 or 10 ug)/ml. After 18 hr. treatment with Tunicamycin, cells were photographed under phase-contrast with a Zeiss Axiovert 25 microscope for evidence of dead floating cells. Cells from the group treated solely with tunicamycin became strikingly hyper-refringent, detached from the substratum and floated in the media. […] To further evaluate a role for cystathionine in resisting the induction of cell death by tunicamycin, cell lysis was quantified by assaying lactate dehydrogenase (LDH) release. The enzyme activity was determined spectrophotometrically and the amount of enzyme leak was expressed as a percentage of the LDH activity observed in untreated control cells.
HepG2, 293AD and a23 cells were seeded in triplicate at ˜75% confluence and were pre-treated with either propargylglycine (PPG) (5 mM) or cystathionine (5 mM) in complete media (DMEM, 10% FBS). After 24 hours, fresh media with 1% FBS was added to each well. Cells were then further treated with tunicamycin (either 5 or 10 ug/ml) for 18 hr treatment. Cells were subsequently photographed under phase-contrast with a Zeiss Axiovert 25 microscope for evidence of dead floating cells. To quantify cell death the media supernatant was collected for LDH release assay using a kit from Roche Applied Science (Cat.No.11 644 793 001) according to the manufacturer's standard protocol where cytotoxicity (%)=((experimental value-low control/(high control-low control))×100.
as §1, with “24 hr.” for “24 hr”

C#CCC(N)C(=O)O (racemic) [PPG, D,L-2-amino-4-pentynoic acid]
expression of Grp78, Grp94 and GADD15 in control cells ([1]; PPG 5 mM or cystathionine 5 mM, no tunicamycin): Neither PPG nor exogenously added cystathionine induced expression | scale of induction of Grp78, Grp94 and GADD153 in the presence of tunicamycin ([1]; tunicamycin 5 and 10 μg/ml): Nor did either of these treatments significantly alter the scale of induction | duration of cystathionine accumulation [2]: approximately one day | inactivation of hepatic CGL activity [2]: rapidly inactivate | time to accumulation of cystathionine [2]: within one hour | expression of KDEL signature proteins ([3]; PPG treatment alone): did not induce expression | level of induction of KDEL containing chaperones and GADD153 by tunicamycin ([3]; tunicamycin + PPG, liver and kidney): did not appear to affect the level of induction | prevention of tunicamycin-induced cell death (LDH release) ([4]; 293AD cells, tunicamycin 5 μg/ml 18 hr, 24 hr pre-treatment PPG 5 mM): largely prevented | reduction in cell death (LDH release) ([4]; 293AD cells, tunicamycin 10 μg/ml 18 hr, 24 hr pre-treatment PPG 5 mM or cystathionine 1 mM, p<0.0001): 11 fold | floating dead cells (phase-contrast) ([4]; tunicamycin 18 hr after PPG or cystathionine pre-treatment): No floating dead cells were observed; also recorded: not evident
